Here are results for nine compounds from ChEMBL document CHEMBL1201862, “PubChem BioAssay data set” (2004).

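Assay format: 96-well plates, 48-hour exposure. The concentration for 50% growth inhibition is given as GI50.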 Calls of active or inactive are those of the source. Cut-off read from the data, not from the text of the source: active = GI50 up to about 1.1 µM and inactive = higher.

Test systems include HL-60; ACHN; NCI-H226; SR; NCI-H460; NCI-H23; HOP-92; EKVX; HOP-62; SW-620; Malme-3M; HCT-116; COLO 205; OVCAR-4; UACC-62; DMS-273; NCI/ADR-RES; PC-3; Hs-578T; BT-549.
Holding throughout (experiment): inhibition of tumour cell growth, NCI panel, 48 h

On to `CC(C)c1ccccc1NC(=O)CCc1n[nH]c(=S)o1`, for which the GI50 was > 59.8 µM (inactive) in the assay on HL-60; > 81.7 µM (inactive) in the assay with ACHN; > 100 µM (inactive) in the assay on NCI-H226; > 100 µM (inactive) in the assay on SR; > 49.9 µM (inactive) with NCI-H460; > 100 µM (inactive) in the assay on NCI-H23. Moreover, the GI50 is > 100 µM (inactive) with HOP-92; > 100 µM (inactive) in the assay on EKVX; > 100 µM (inactive) in the assay on HOP-62; > 37.4 µM (inactive) with SW-620; > 100 µM (inactive) with Malme-3M; > 63.5 µM (inactive) in the assay on HCT-116. Besides, the GI50 was 27.2 µM (inactive) with COLO 205, > 100 µM (inactive) in the assay with OVCAR-4, > 100 µM (inactive) in the assay with UACC-62 and > 54.3 µM (inactive) with DMS-273.

As to `O=S(=O)(N/N=C/c1ccc(Cl)cc1Cl)c1ccccc1`, the GI50 with HL-60 was 19.5 µM (inactive); in the assay with ACHN, > 100 µM (inactive); in the assay on NCI-H226, 99.3 µM (inactive); with SR, 57 µM (inactive); in the assay with NCI-H23, 69.7 µM (inactive); with HOP-92, 34.8 µM (inactive). Further, the GI50 is > 100 µM (inactive) in the assay on EKVX; > 100 µM (inactive) in the assay on HOP-62; 78.9 µM (inactive) in the assay with SW-620; > 100 µM (inactive) with Malme-3M; 49 µM (inactive) with HCT-116; 62.4 µM (inactive) with COLO 205. The results for the GI50 with OVCAR-4, in the assay with UACC-62 and with DMS-273 were > 100 µM (inactive), > 100 µM (inactive) and 66.7 µM (inactive), respectively.

As to `N/N=C(\CCN1CCCC1)CC(c1ccccc1)c1c(O)c2ccccc2oc1=O` (centres undefined), the GI50 in the assay on HL-60, in the assay on ACHN, in the assay with NCI-H226, in the assay on SR, in the assay on NCI-H460 and in the assay with NCI-H23 was > 100 µM (inactive) each time. In addition, the GI50 with HOP-92 was 49 µM (inactive); with EKVX, 44.2 µM (inactive); in the assay on HOP-62, > 100 µM (inactive); in the assay with SW-620, > 100 µM (inactive); in the assay with Malme-3M, > 100 µM (inactive); with HCT-116, > 100 µM (inactive). Moreover, the GI50 in the assay with COLO 205, in the assay with OVCAR-4, in the assay on UACC-62 and in the assay on DMS-273 was > 100 µM (inactive) each time.

`C=C(C(=C)P(=S)(C(C)C)C(C)C)P(=S)(C(C)C)C(C)C`: the GI50 with HL-60, in the assay with ACHN, in the assay with NCI-H226, in the assay with SR, with NCI-H460 and with NCI-H23 was > 100 µM (inactive) in each case. Further, the GI50 in the assay on HOP-92, in the assay with EKVX, in the assay on HOP-62, in the assay with SW-620, in the assay on Malme-3M and with HCT-116 was > 100 µM (inactive) throughout. Also, the GI50 in the assay with COLO 205, in the assay on OVCAR-4, with UACC-62 and with DMS-273 was > 100 µM (inactive) throughout.

As for `Fc1ccc(C2SCc3nc4ccccc4n32)cc1Cl` (centres undefined), the GI50 with HL-60 was 13.1 µM (inactive); with ACHN it was 25.5 µM (inactive); in the assay on NCI-H226 it was 23.2 µM (inactive); in the assay with SR, 27.2 µM (inactive); in the assay on NCI-H460, 29.2 µM (inactive); in the assay on NCI-H23, 22.5 µM (inactive). Moreover, the GI50 in the assay on HOP-92 was 12 µM (inactive); in the assay on EKVX, 24.3 µM (inactive); in the assay with HOP-62, 15.5 µM (inactive); in the assay on SW-620, 36.1 µM (inactive); in the assay on Malme-3M it was 7.8 µM (inactive); in the assay with COLO 205, 15.3 µM (inactive). In addition, the GI50 was 20 µM (inactive) in the assay with OVCAR-4, 10.1 µM (inactive) with UACC-62 and > 10 µM (inactive) with DMS-273.

On to `Brc1ccccc1/C=N\C12CC3CC(CC(C3)C1)C2`, for which the GI50 with HL-60 is 0.879 µM (active); in the assay with ACHN, > 68.2 µM (inactive); in the assay with NCI-H226, > 100 µM (inactive); in the assay with NCI/ADR-RES, > 100 µM (inactive); in the assay with SR, 1.15 µM (inactive); in the assay with NCI-H460, > 100 µM (inactive). For the same compound, the GI50 was 43.2 µM (inactive) in the assay on PC-3; > 65 µM (inactive) with NCI-H23; 84.7 µM (inactive) with HOP-92; > 100 µM (inactive) with EKVX; > 81.8 µM (inactive) with HOP-62; 3.9 µM (inactive) with SW-620. Further, the GI50 in the assay on Malme-3M is > 67.9 µM (inactive); with Hs-578T, > 64.6 µM (inactive); in the assay with HCT-116, 1.85 µM (inactive); in the assay on COLO 205, > 100 µM (inactive); with OVCAR-4, > 100 µM (inactive); in the assay with UACC-62, 12 µM (inactive). The results for the GI50 with BT-549 and in the assay on DMS-273 were > 100 µM (inactive) and 11.3 µM (inactive), respectively.

Take `CS(=O)(=O)CS(=O)(=O)OCCCl`: the GI50 in the assay with HL-60 is 136 µM (inactive); in the assay on ACHN, 124 µM (inactive); in the assay on NCI-H226 it was 177 µM (inactive); in the assay on NCI/ADR-RES, 324 µM (inactive); in the assay on SR it was 15.8 µM (inactive); with NCI-H460, 83.6 µM (inactive). For the same compound, the GI50 in the assay with PC-3 was 348 µM (inactive); in the assay on NCI-H23, 143 µM (inactive); in the assay with HOP-92, 119 µM (inactive); in the assay with EKVX, 366 µM (inactive); in the assay with HOP-62 it was 43.3 µM (inactive); in the assay on SW-620, 115 µM (inactive). Further, the GI50 in the assay on Malme-3M is 356 µM (inactive); with Hs-578T, 272 µM (inactive); in the assay on HCT-116 it was 166 µM (inactive); with COLO 205, 276 µM (inactive); with OVCAR-4, 403 µM (inactive); in the assay on UACC-62, 29.5 µM (inactive). Moreover, the GI50 in the assay on BT-549 is 99.5 µM (inactive); in the assay on DMS-273, 236 µM (inactive).

`Cc1ccc(S(=O)(=O)OC2CS[S+]([O-])CC2OS(=O)(=O)c2ccc(C)cc2)cc1` (centres undefined): the GI50 with HL-60 is 6.01 µM (inactive); in the assay with ACHN, 17 µM (inactive); in the assay on NCI-H226, 19.4 µM (inactive); with SR it was 1.83 µM (inactive); in the assay on NCI-H460, 22.3 µM (inactive); with NCI-H23 it was 14.7 µM (inactive). Besides, the GI50 in the assay on HOP-92 is 13 µM (inactive); with EKVX it was 21.1 µM (inactive); in the assay on HOP-62 it was 20.8 µM (inactive); in the assay on SW-620, 6.55 µM (inactive); with Malme-3M it was 14.6 µM (inactive); in the assay with HCT-116 it was 13.9 µM (inactive). In addition, the GI50 was 11.8 µM (inactive) in the assay with COLO 205, 15.6 µM (inactive) in the assay with OVCAR-4, 15.3 µM (inactive) with UACC-62 and 18.9 µM (inactive) in the assay with DMS-273.

Regarding `O=C(O)c1c2c(cc3c(=O)c4ccccc4[nH]c13)CCCC2`, the GI50 in the assay on HL-60, in the assay with ACHN, in the assay with NCI-H226, with SR, with NCI-H460 and with NCI-H23 was > 100 µM (inactive) each time. In addition, the GI50 in the assay with HOP-92 was 59.7 µM (inactive); with EKVX, > 100 µM (inactive); in the assay with HOP-62 it was > 100 µM (inactive); in the assay on SW-620 it was 65.2 µM (inactive); in the assay with Malme-3M, > 100 µM (inactive); with HCT-116 it was 82 µM (inactive). Further, the GI50 was > 100 µM (inactive) in the assay on COLO 205, 76.7 µM (inactive) with UACC-62 and 83 µM (inactive) in the assay with DMS-273.
